Laboratory results from US12049439B2 (OrsoBio, Inc., priority 2018, dated 2024).

Tested on: PC-3 cells
Assay: PC-3 Oxygen Rate Consumption (OCR) Assay
Format: cell-based
Settings: Homo sapiens, 0.05 h, medium with 2% FBS, OCR at 3-min post-injection normalized to % increase over DMSO-treated cells, concentration for half-maximal OCR increase, read-out: EC50-PC3-OCR-FBS-3min
Procedure: PC-3 Oxygen Rate Consumption (OCR) Assay Procedure:
One day before the assay, PC-3 cells were seeded at 2.5×10^4 cells/160 μL/well in a 96-well XFe96 cell plate, part of a FlexPak containing a cell plate and a cartridge (Agilent, Sunnyvale, CA). The cells were incubated overnight at 37° C. in a 5% CO2 and 90% humidity incubator with F12K culture medium (ThermoFisher Scientific/Invitrogen, Grand Island, NY) containing 10% FBS and 1% penicillin/streptomycin. On the day of the assay, the cells were washed twice with 300 µL/well Medium A [XF assay medium (Agilent) supplemented 10 mM glucose, 1 mM pyruvate, and 2% fetal bovine serum (FBS)], and incubated with 175 µL/well Media A for 1 hr in a 37° C., non-CO2 incubator prior to the measurement of cellular respiration. Compounds of interests were prepared in 1:2 serial dilutions with 100% DMSO and then further diluted into 8× working stock with Media A prior to being loaded to Injection Port A on a XFe96 Analyzer (Agilent). Six replicates were used for each treatment. The cartridge was calibrated in the XFe96 Analyzer 30 minute prior to the measurement of cellular respiration. Basal levels of OCR were measured three times, each using a “3-minute mixing/3-minute measurement” program. The compound effect was measured immediately after compound injection from Injection Port A, and OCR was monitored continuously 10 times, each time using a “1-minute mixing/2-minute measurement” program for a total of 30 minutes post compound injection. The level of OCR at 3-min post-injection was normalized to % increase over DMSO-treated cells. The concentration of compound required to reach the half-maximal OCR increase was defined as EC50 Table 2 contains PC3 OCR EC50 values for the compounds disclosed.

SMILES	EC50
O=C(NC12CC(C(F)(F)F)(C1)C2)c1ccc(C(F)(F)F)cc1NS(=O)(=O)c1cccnc1 [Example 59, 2-(pyridine-3-sulfonamido)-4-(trifluoromethyl)-N-(3-(trifluoromethyl)bicyclo[1.1.1]pentan-1-yl)benzamide]	1.84 µM
CC(C)S(=O)(=O)Nc1cc(C(F)(F)F)ccc1C(=O)NC12CC(C#N)(C1)C2 [Example 60, N-(3-cyanobicyclo[1.1.1]pentan-1-yl)-2-((1-methylethyl)sulfonamido)-4-(trifluoromethyl)benzamide]	6.22 µM
Cc1ccc(C(=O)NC23CC(C(F)(F)F)(C2)C3)c(NS(=O)(=O)C(C)C)c1 [Example 61, 4-methyl-2-((1-methylethyl)sulfonamido)-N-(3-(trifluoromethyl)bicyclo[1.1.1]pentan-1-yl)benzamide]	≥ 100 µM
Cc1ncc(S(=O)(=O)Nc2cc(C(F)(F)F)ccc2C(=O)NC23CC(C(F)(F)F)(C2)C3)s1 [Example 62, 2-((2-methylthiazole)-5-sulfonamido)-4-(trifluoromethyl)-N-(3-(trifluoromethyl)bicyclo[1.1.1]pentan-1-yl)benzamide]	1.53 µM
CC1(S(=O)(=O)Nc2cc(C(F)(F)F)ccc2C(=O)NC23CC(C(F)(F)F)(C2)C3)CC1 [Example 63, 2-((1-methylcyclopropane)-1-sulfonamido)-4-(trifluoromethyl)-N-(3-(trifluoromethyl)bicyclo[1.1.1]pentan-1-yl)benzamide]	0.937 µM
CC1(S(=O)(=O)Nc2cc(C(F)(F)F)ccc2C(=O)NC23CC(C#N)(C2)C3)CC1 [Example 64, N-(3-cyanobicyclo[1.1.1]pentan-1-yl)-2-((1-methylcyclopropane)-1-sulfonamido)-4-(trifluoromethyl)benzamide]	5.22 µM
Cc1ccc(C(=O)NC23CC(C(F)(F)F)(C2)C3)c(NS(=O)(=O)c2ccncc2)c1 [Example 65, 4-methyl-2-(pyridine-4-sulfonamido)-N-(3-(trifluoromethyl)bicyclo[1.1.1]pentan-1-yl)benzamide]	21.8 µM
CC1(S(=O)(=O)Nc2cc(C(F)(F)F)ccc2C(=O)NC23CC(C2)C3)CC1 [Example 66, N-(bicyclo[1.1.1]pentan-1-yl)-2-((1-methylcyclopropane)-1-sulfonamido)-4-(trifluoromethyl)benzamide]	8.35 µM
CC1(S(=O)(=O)Nc2cc(C(F)(F)F)ccc2C(=O)NC23CCC(C#N)(CC2)CC3)CC1 [Example 67, N-(4-cyanobicyclo[2.2.2]octan-1-yl)-2-((1-methylcyclopropane)-1-sulfonamido)-4-(trifluoromethyl)benzamide]	5.92 µM
CC(C)S(=O)(=O)Nc1ccc(C(F)(F)F)cc1C(=O)NC12CC(C#N)(C1)C2 [Example 68, N-(3-cyanobicyclo[1.1.1]pentan-1-yl)-2-((1-methylethyl)sulfonamido)-5-(trifluoromethyl)benzamide]	5.13 µM
CC(C)S(=O)(=O)Nc1ccc(C(F)(F)F)cc1C(=O)NC12CC(C(F)(F)F)(C1)C2 [Example 69, 2-((1-methylethyl)sulfonamido)-5-(trifluoromethyl)-N-(3-(trifluoromethyl)bicyclo[1.1.1]pentan-1-yl)benzamide]	0.518 µM
CC(C)S(=O)(=O)Nc1ccc(C(F)(F)F)cc1C(=O)NC12CC(Cl)(C1)C2 [Example 70, N-(3-chlorobicyclo[1.1.1]pentan-1-yl)-2-((1-methylethyl)sulfonamido)-5-(trifluoromethyl)benzamide]	0.591 µM
CC(C)S(=O)(=O)Nc1ccc(C(F)(F)F)cc1C(=O)NC12CC(C1)C2 [Example 71, N-(bicyclo[1.1.1]pentan-1-yl)-2-((1-methylethyl)sulfonamido)-5-(trifluoromethyl)benzamide]	6.67 µM
CC(C)S(=O)(=O)Nc1ccc(C(F)(F)F)cc1C(=O)NC12CCC(C#N)(CC1)CC2 [Example 72, N-(4-cyanobicyclo[2.2.2]octan-1-yl)-2-((1-methylethyl)sulfonamido)-5-(trifluoromethyl)benzamide]	4.01 µM
